Drawing on the Deep4Chem optical property database, this text covers emission maximum for 39 compounds.

The nature of the series: solvent given as SMILES.
Setting [1] is: in O=P(c1ccccc1)(c1ccccc1)c1ccccc1Oc1ccccc1P(=O)(c1ccccc1)c1ccccc1.

Regarding `COc1ccc(-c2cc3c(ccc(=O)n3C)s2)cc1`, the emission maximum is, setting by setting: (in CC#N) 424 nm; (in ClCCl) 426 nm.
For the compound `F[B-]1(F)Oc2ccccc2-c2cc(-n3c4ccc(-c5ccccc5)cc4c4cc(-c5ccccc5)ccc43)cc[n+]21`, the emission maximum amounted to 471 nm (in Cc1ccccc1) and 496 nm under setting [1].
With `CCCCC(CC)COc1cc(OCC(CC)CCCC)c2c#cc3ccc4oc5ccc(c#cc6cc(c#cc7ccc8oc9ccc(c#cc1c2)cc9c8c7)c(C(CCCC)OCCC)cc6C(CCCC)OCCC)cc5c4c3` (stereo unspecified), the emission maximum (in ClCCl) worked out at 377 nm.
As for `Cc1cc(C)c(C2=C3C=CC=[N+]3[B-]3(c4ccccc4)Oc4cc(O)cc5c6ccc(C)cc6c6cc2n3c6c45)c(C)c1` (stereo unspecified), the emission maximum (in ClC(Cl)Cl) was 669 nm.
Take `CCCCn1cc(/C=C/c2cc(=O)oc3cc(C)ccc23)c2ccccc21`: the emission maximum by setting is: (in CS(C)=O) 532 nm; (in ClC(Cl)Cl) 474 nm.
With `C(=C(c1ccccc1)c1ccccc1)c1ccc(-c2cc(-c3ccc(C=C(c4ccccc4)c4ccccc4)cc3)cc(-c3ccc(C=C(c4ccccc4)c4ccccc4)cc3)c2)cc1`, under “in C1CCOC1”, the emission maximum is given as 446 nm.
Regarding `O=C1c2cccc3cc4ccccc4c(c23)C(=O)N1Cc1ccccn1`, the emission maximum runs as follows: (in C1CCOC1) 485 nm; (in CCCCCC) 465 nm; (in CCO) 500 nm; (in Cc1ccccc1) 483 nm; (in ClCCl) 490 nm.
With `COc1ccc2c(c1)c1cc(OC)ccc1n2-c1cccc(-n2c3ccc(OC)cc3c3cc(OC)ccc32)c1C#N`, the emission maximum reads like this: (in Cc1ccccc1) 460 nm; under setting [1], 462 nm.
The compound `c1cc2c(C3SCCCS3)c3ccc(=[N+]4CCCCC4)cc-3oc2cc1N1CCCCC1` came in with an emission maximum (in CO) of 606.31 nm.
`CC(C)[Si]1(C(C)C)c2cc(C=C(C#N)C#N)ccc2-c2ccc(N(C)C)cc21`: the emission maximum reads like this: (in C1CCCCC1) 509 nm; (in CC#N) 694 nm; (in CCO) 691 nm; (in CCOCC) 584 nm; (in CS(C)=O) 714 nm; (in ClCCl) 644 nm. In addition, where the note is “in c1ccccc1”, the emission maximum is recorded as 566 nm.
For the compound `C(=C\c1c2ccccc2cc2ccccc12)/c1cnc2ccccc2c1`, the emission maximum was determined as 488 nm (in CC1CCCCC1) and 494 nm (in CC#N).
In the case of `CN(C)c1ccc(N2c3sc4ccccc4c3Sc3c2sc2ccccc32)cc1`, the emission maximum (in ClCCl) was 556 nm.
`CC(C)(C)c1ccc2c(c1)c1cc3c4cc(C(C)(C)C)ccc4c4c5c6ccc(C(C)(C)C)cc6c6cc7c8cc(C(C)(C)C)ccc8c8c2c1c(c34)c(c78)c65`: the emission maximum by setting is: (in CCCCCC) 679.35 nm; (in CCOCC) 679.9 nm; (in Cc1ccccc1) 685.4 nm.
`CCCCn1c2ccc(C#N)cc2c2cc(C#N)cc(-c3ccc(N(c4ccccc4)c4ccccc4)cc3)c21`: the emission maximum reads like this: (in C1CCCCC1) 407 nm; (in C1CCOC1) 440 nm; (in CC#N) 474 nm; (in CCCCOCCCC) 412 nm; (in CCN(CC)CC) 410.48 nm; (in CCOC(C)=O) 438 nm. Moreover, the emission maximum reads like this: (in CCOCC) 424 nm; (in CN(C)C=O) 472 nm; (in Cc1ccccc1) 415 nm; (in ClC=C(Cl)Cl) 420 nm; (in ClCCl) 447 nm.
For the setting “in ClC(Cl)Cl”, `CC1=CC(C)=[N+]2C1=C(c1ccc(I)cc1)c1c(C)cc(C)n1[B-]21Oc2ccc3ccccc3c2-c2c(ccc3ccccc23)O1` yielded an emission maximum of 516.4 nm.
As for `CCCCn1c(-c2ccc(-c3nnc(-c4cccs4)o3)cc2)nc(-c2ccccc2)c1-c1ccccc1`, the emission maximum (in ClCCl) amounted to 444 nm.
Compound `O=Cc1ccc(C#CC(C#Cc2ccc(C=O)s2)=Cc2ccc(C=C(C#Cc3ccc(C=O)s3)C#Cc3ccc(C=O)s3)s2)s1` displayed an emission maximum (in ClC(Cl)Cl) of 595 nm.
On to `COc1ccc(O)c(-c2[nH]c(=O)n3c2-c2ccccc2C3=O)c1`, for which the emission maximum is, setting by setting: (in CC#N) 480 nm; (in CO) 500 nm; (in ClCCl) 481 nm.
`COCCC1=Cc2nc1ccc1[nH]c(cc1CCOC)c1nc(c(O)cc3[nH]c2cc3CCOC)C(CCOC)=C1` had an emission maximum (in Cc1ccccc1) of 688 nm.
`CCN(CC)c1ccc2c(c1)OC1=C(/C=C/C3=[N+](C)c4ccc5ccccc5c4C3(C)C)CCCC1=C2c1ccccc1C(=O)O` showed an emission maximum (in CC#N) of 763 nm, an emission maximum (in CCO) of 750 nm, an emission maximum (in CO) of 753 nm and an emission maximum (in ClC(Cl)Cl) of 761 nm.
Turning to `CN(C)CCN(Cc1c2ccccc2c(CN(CCN(C)C)c2ccc([N+](=O)[O-])cc2[N+](=O)[O-])c2ccccc12)c1ccc([N+](=O)[O-])cc1[N+](=O)[O-]`, the emission maximum is, setting by setting: (in C1CCCCC1) 416 nm; (in C1CCOC1) 419 nm; (in CC#N) 389 nm; (in CC(C)=O) 387 nm; (in CCO) 388 nm; (in CN(C)C=O) 424 nm. The compound further displayed an emission maximum (in CO) of 389 nm and an emission maximum (in ClC(Cl)Cl) of 417 nm.
Consider `F[B-]1(F)n2c(c3cccc4cccc2c43)=Nc2sc3ccccc3[n+]21`, for which the emission maximum is, setting by setting: (in C1CCOC1) 501 nm; (in CC#N) 500 nm; (in CCCCCC) 493 nm; (in Cc1ccccc1) 504 nm; (in ClCCl) 529 nm.
Regarding `C(#Cc1cc2ccc3cccc4ccc(c1)c2c34)c1ccccc1`, under “in Cc1ccccc1”, the emission maximum amounted to 399 nm.
Take `CCn1c2ccccc2c2cc(C#Cc3cc(C#Cc4ccc5c(c4)c4ccccc4n5CC)nc(N4CCCCC4)n3)ccc21`: the emission maximum by setting is: (in C1CCOC1) 445 nm; (in CCOC(C)=O) 446 nm; (in CN(C)C=O) 469 nm; (in Cc1ccccc1) 438 nm; (in ClCCl) 450 nm.
`O=C1c2cccc3c(C#CC#Cc4ccc5c6c(cccc46)C(=O)N(c4ccccc4)C5=O)ccc(c23)C(=O)N1c1ccccc1` yielded an emission maximum (in ClCCl) of 440 nm.
Regarding `CC1(C)c2ccccc2-c2cc3c(cc21)N(c1ccc(-c2nc(-c4ccc(N5c6ccccc6C(c6ccccc6)(c6ccccc6)c6cc7c(cc65)C(C)(C)c5ccccc5-7)cc4)nc(-c4ccc(N5c6ccccc6C(c6ccccc6)(c6ccccc6)c6cc7c(cc65)C(C)(C)c5ccccc5-7)cc4)n2)cc1)c1ccccc1C3(c1ccccc1)c1ccccc1`, where the note is “in Cc1ccccc1”, the emission maximum is 515 nm.
As for `CC1(C)[C@@H]2CC[C@]1(C)c1nc3cc(-c4cccs4)ccc3nc12`, the emission maximum stood at 418 nm (in CC#N); 402 nm (in CCCCCC); 442 nm (in CCCCO); 446 nm (in CCO); 406 nm (in CCOC(C)=O); 451 nm (in CO). Further, the emission maximum is 402 nm (in Cc1ccccc1), 415 nm (in ClC(Cl)Cl) and 413 nm (in ClCCl).
The compound `O=c1oc2ccccc2c2c1c(=O)oc1c3ccccc3cc(O)c12` yielded an emission maximum (in ClCCl) of 533 nm.
`CC1(C)C2=[N+](CCCCCC(=O)NCCNC(=O)CCCCCN3/C(=C/C=C/C=C/C=C/2)C(C)(C)c2cc(S(=O)(=O)[O-])ccc23)c2ccc(S(=O)(=O)[O-])cc21`: the emission maximum is, setting by setting: (in CO) 778 nm; (in O) 770 nm.
For the compound `COc1cccc(-n2c(-c3ccccc3)nc(C)c2C)c1`, the emission maximum runs as follows: (in C1COCCO1) 366 nm; (in CC#N) 373 nm; (in CCCCCC) 365 nm; (in CCCCO) 370 nm; (in CCO) 369 nm; (in CCOC(C)=O) 370 nm. In addition, the emission maximum by setting is: (in CO) 368 nm; (in ClC(Cl)Cl) 366 nm; (in ClCCl) 364 nm; (in c1ccccc1) 372 nm.
`CCCc1c(C(=O)c2ccc3c4c(cccc24)-c2cccc4c2C3CC=C4)c2ccc3cccc4c5cccc6ccc1c(c65)c2c34` (stereo unspecified) yielded an emission maximum (in ClCCl) of 526 nm.
Where the note is “in ClCCl”, `c1ccc(B2Nc3cc4c(cc3-c3occc32)NB(c2ccccc2)c2ccoc2-4)cc1` returned an emission maximum of 393 nm.
`O=C1CC(=O)Nc2ccccc2N1` gave an emission maximum (in CS(C)=O) of 337 nm.
Where the note is “in ClC(Cl)Cl”, `Cc1ccc2c(c1)c(C#N)c(C#N)c1cc(C)ccc12` registered an emission maximum of 396 nm.
`N#Cc1c(N2CCCCC2)cc(-c2ccc(Br)cc2)c2c1CCc1ccccc1-2` yielded an emission maximum (in C1CCOC1) of 468 nm.
Turning to `CC(=O)Nc1ccc(S(=O)(=O)O)c(/N=N/c2c(O)c3ccccc3n(C)c2=O)c1`, the emission maximum is on record as 523 nm (in C1CCOC1); 516 nm (in CC(C)=O); 523 nm (in CCOC(C)=O); 512 nm (in CO); 526 nm (in CS(C)=O); 517 nm (in Cc1ccccc1). The emission maximum by setting is: (in ClCCl) 528 nm; (in O) 549 nm.
With `C[C@@]12SC(Cl)=CC1=c1nc(-c3ccccc3)[nH]c1=C1C=C(Cl)S[C@]12C`, the emission maximum (in CC#N) amounted to 452 nm.
`CC(C)[Si](C#Cc1c2ccccc2c(C#Cc2c3ccccc3c(C#Cc3c4ccccc4c(C#Cc4c5ccccc5c(C#C[Si](C(C)C)(C(C)C)C(C)C)c5ccccc45)c4ccccc34)c3ccccc23)c2ccccc12)(C(C)C)C(C)C` showed an emission maximum (in Cc1ccccc1) of 609 nm.
Turning to `COc1ccc2c3c(cccc13)C(=O)N(C)C2=O`, the emission maximum by setting is: (in C1CCCCC1) 404 nm; (in C1CCOC1) 430 nm; (in CC#N) 434 nm; (in CC(C)CC(C)(C)C) 402 nm; (in CCCCCCCCCCCC) 402 nm; (in CCO) 444 nm. For the same compound, the emission maximum stood at 444 nm (in CN(C)C=O); 450 nm (in CO); 452 nm (in CS(C)=O); 412 nm (in ClC(Cl)(Cl)Cl); 462 nm (in O).
